Converted amounts (≈) assume the structure as drawn.

Data set [1] in a line: Solubility of compound in pH 6.8 PBS incubated for 16 to 24 hrs under shaking condition by LC-MS/MS analysis. The format is physicochemical.
Data set [2] can be described thus: Cmax in athymic nude mouse at 10 mg/kg, po measured for 0.5 to 24 hrs by LC-MS/MS analysis. The format is ADME, organism-based. The arrangement: dose 10 mg/kg, route oral. As to conditions: in vivo.
Data set [3] in a line: AUC (0 to 7 hrs) in athymic nude mouse at 10 mg/kg, po measured for 0.5 to 24 hrs by LC-MS/MS analysis. The format is ADME, organism-based. The arrangement: time < 7 hr, dose 10 mg/kg, route oral. As to conditions: in vivo.

As to `C[C@H](NC(=O)[C@@H]1CCCN1C)c1ccc(NC(=O)N2CC(c3cncc(N)c3)C2)cc1`, in data set [1], the thermodynamic solubility (usually solubility found after equilibrating the solid with the medium) is 820 µM (≈ 346 µg/mL).
Same read-out and setting: the result for `C[C@H](NC(=O)C1CCOCC1)c1ccc(NC(=O)N2CC(c3ccc(N)nc3)C2)cc1` reads 310 µM (≈ 131 µg/mL).
Same read-out and setting: the result for `C[C@H](NC(=O)c1cccc(F)c1)c1ccc(NC(=O)N2CC(c3cncc(N)c3)C2)cc1` reads 17 µM (≈ 7.37 µg/mL); that for `C[C@H](NC(=O)c1cccc(F)c1)c1ccc(NC(=O)N2CC(c3cccnc3)C2)cc1`, 11 µM (≈ 4.6 µg/mL).
In the case of `CCOc1nc2ccccc2n1Cc1ccc(NC(=O)N2CC(c3cccnc3)C2)cc1`, the Cmax (usually the highest concentration seen after dosing) in data set [2] came out at 29.1 µM. In addition, in data set [3], the AUC(0-t) (in general, the area under the concentration-time curve up to a stated or last time point) at 7 h amounted to 67.4 µM·h.
In the case of `CCC(=O)N[C@@H](C)c1ccc(NC(=O)N2CC(c3cccnc3)C2)cc1`, the solubility (thermodynamic) in data set [1] was determined as 700 µM (≈ 247 µg/mL).
The same measure, in the same setting: next, `C[C@H](NC(=O)[C@@H]1CCCN1C)c1ccc(NC(=O)N2CC(c3cccnc3)C2)cc1`: above 1000 µM.
Same read-out and setting: next, `C[C@H](NC(=O)[C@@H]1CCCN1C)c1ccc(NC(=O)N2CC(c3ccc(N)nc3)C2)cc1`: 760 µM (≈ 321 µg/mL); `C[C@@H](c1ccc(NC(=O)N2CC(c3cncc(N)c3)C2)cc1)N1Cc2ccccc2C1=O`: 35 µM (≈ 15 µg/mL).
`C[C@@H](c1ccc(NC(=O)N2CC(c3cccnc3)C2)cc1)N1Cc2ccccc2C1=O` registered a thermodynamic solubility in data set [1] of 130 µM (≈ 53.6 µg/mL).
Same read-out and setting: next, `C[C@H](NC(=O)c1ncccn1)c1ccc(NC(=O)N2CC(c3cccnc3)C2)cc1`: 930 µM (≈ 374 µg/mL); `C[C@H](NC(=O)C1CCOCC1)c1ccc(NC(=O)N2CC(c3cncc(N)c3)C2)cc1`: 440 µM (≈ 186 µg/mL); `CCC(=O)N[C@@H](C)c1ccc(NC(=O)N2CC(c3cncc(N)c3)C2)cc1`: 230 µM (≈ 84.5 µg/mL).
Still for that read-out and setting: next, `C[C@H](NC(=O)c1ncccn1)c1ccc(NC(=O)N2CC(c3cncc(N)c3)C2)cc1`: 300 µM (≈ 125 µg/mL); `C[C@@H](c1ccc(NC(=O)N2CC(c3ccc(N)nc3)C2)cc1)N1Cc2ccccc2C1=O`: 220 µM (≈ 94.1 µg/mL).
The same measure, in the same setting: the result for `C[C@H](NC(=O)c1cccc(F)c1)c1ccc(NC(=O)N2CC(c3ccc(N)nc3)C2)cc1` reads 32 µM (≈ 13.9 µg/mL).
In data set [1], `CCC(=O)N[C@@H](C)c1ccc(NC(=O)N2CC(c3ccc(N)nc3)C2)cc1` yielded a solubility (thermodynamic) of 760 µM (≈ 279 µg/mL).
The same measure, in the same setting: next, `C[C@H](NC(=O)c1ncccn1)c1ccc(NC(=O)N2CC(c3ccc(N)nc3)C2)cc1`: 300 µM (≈ 125 µg/mL); `C[C@H](NC(=O)C1CCOCC1)c1ccc(NC(=O)N2CC(c3cccnc3)C2)cc1`: 380 µM (≈ 155 µg/mL).

(Values after ChEMBL document CHEMBL4406910, “Scaffold Morphing Identifies 3-Pyridyl Azetidine Ureas as Inhibitors of Nicotinamide Phosphoribosyltransferase (NAMPT)” (ACS Med Chem Lett, 2019).)
